Measurements reported in patent US8642794B1, “Biosurfactant compounds produced by Aureobasidium pullulans” (Gyeongbuk Institute for Marine Bio-industry, priority 2012, dated 2014).

Experiment: Surface tension measurement with a tensiometer (Sigma 700), aqueous solution dropped onto a hydrophobic film
Type: physicochemical
Conditions: at 1.0 mg/liter; water as control
Method: The compounds L3-E3 and L3-E6 isolated in Examples 2 and 4, respectively, were dropped onto the surface of a hydrophobic film, and their surface tension was measured by using a tensiometer (Sigma 700 Tensiometer, KSV Instruments Ltd., Finland). Here, water was used as a control, and the change in surface tension was measured by using a microbial culture, L3-E3 and L3-E6.

Row | SMILES | surface tension [dyne/cm]
1 | CCCCCC(O)CC(O)CC(=O)OC(CCCCC)CCCC(=O)OC (centres unmarked) [L3-E6] | 36.4
2 | CCCCCC(O)CC(O)CC(=O)OC(CCCCC)CC(O)CC(=O)OC (centres unmarked) [L3-E3] | 29.5
